US4575560A, “Insecticidal diaminoguanidine hydrazone compounds” (American Cyanamid Company, priority 1985, dated 1986)
In brackets after ≈: the same amount, converted by molar mass. Structures can show the parent of a compound that is named as a salt. Where two headings read alike, the source gives them in different places.

What was measured:
Southern Armyworm = experiment: Southern armyworm test, third-instar larvae on treated Sieva lima bean leaves; format: in vivo, Spodoptera eridania (Cramer)
Procedure, shortened: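 Sieva lima bean plants, primary leaves expanded to 1.91 cm, were dipped with agitation for three seconds in test material dissolved in 65% acetone, with further dilutions in acetone, then air-dried in a hood. A treated leaf was placed in a 9 cm petri dish on moist filter paper with 10 third-instar Spodoptera eridania larvae about 1 cm long. Dishes were covered and kept at 80° F. and 50% r.h. Mortality and feeding were assessed after two days.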

[1] = test system: Tobacco Budworm 1st Instar; experiment: Tobacco budworm initial test, treated eggs / newly hatched (1st instar) larvae on treated cotton leaves; format: in vivo, Heliothis virescens (Fabricus)
Protocol: Test formulations and procedures used for evaluation are as follows:
A. 100 mg of the test material is weighed, placed in a funnel over a 113 g narrow-mouth bottle, rinsed into the bottle with a 35 mL scoop of acetone, followed by a 35 mL scoop of water and another 35 mL scoop of acetone to yield 1000 ppm in 65% acetone. If the material is not soluble, it is broken up with a glass rod and used as a suspension.
B. This stock solution ("A") is used to make 300 ppm solutions or suspensions by pipetting 30 mL of "A" into a bottle containing 70 mL of 50% acetone to yield 300 ppm. Further dilutions in 50% acetone are made as required.
C. Tests requiring 10 ppm acetone solutions: 1 mL of "A" is pipetted into 99 mL of acetone to yield 10 ppm. Additional dilutions are made using 50% acetone as required.
Tobacco Budworm--Heliothis virescens (Fabricus)
A cotton plant with two true leaves expanded is dipped for three seconds with agitation in 300 ppm solution. A 1.27 to 1.91 cm square of cheesecloth with about 50 to 100 budworm eggs 0-24 hours old is also dipped in the test solution and placed on a leaf of the cotton plant, all being placed in the hood to dry. The leaf with the treated budworm eggs is removed from the plant and placed in a 226 g Dixie cup with a wet 5 cm piece of dental wick and covered with a lid. The other leaf is placed in a similar cup with a wick and a piece of cheesecloth infested with 50-100 newly hatched larvae is added before covering the cup with a lid. After three days at 80° F., 50% relative humidity, observations of egg hatch are made, as well as kill of newly hatched larvae, any inhibition of feeding, or interference of any sort with normal development.

[2] = test system: Tobacco Budworm 3rd Instar; experiment: Tobacco budworm secondary test, third-instar larvae on treated cotton cotyledons; format: in vivo, Heliothis virescens (Fabricus)
Protocol: Three cotton plants with just expanded cotyledons are dipped in 1000 ppm solution and placed in the hood to dry. When dry, each cotyledon is cut in half, and 10 are each placed in a 28 g plastic medicine cup containing a 1.25 cm dental wick saturated with water, and one third-instar budworm larva is added. The cup is capped and held for three days at 80° F., 50% relative humidity, after which mortality counts are made.

[3] = Spodoptera eridania; read-out: LC50 Southern Armyworm

SMILES	Mortality Rating Southern Armyworm (Southern Armyworm; 10 ppm, third-instar larvae)	Mortality Rating Southern Armyworm (Southern Armyworm; 100 ppm, third-instar larvae)	Mortality Rating Southern Armyworm (Southern Armyworm; 1000 ppm, third-instar larvae)	Mortality Rating Tobacco Budworm 1st Instar ([1]; 300 ppm)	Mortality Rating Tobacco Budworm 3rd Instar ([2]; 1000 ppm)	Mortality Rating Tobacco Budworm 3rd Instar ([2]; 100 ppm)	reduced feeding (R) Tobacco Budworm 3rd Instar ([2]; 100 ppm)	reduced feeding (R) Tobacco Budworm 3rd Instar ([2]; 1000 ppm)	LC50 (Southern Armyworm; [3])	LC50 Southern Armyworm (Southern Armyworm; southern armyworm, in vivo)	Mortality Rating Tobacco Budworm 1st Instar ([1]; 100 ppm)	LC50 (Southern Armyworm; Spodoptera eridania, read-out: LC50 Southern Armyworm)	Mortality Rating Tobacco Budworm 3rd Instar ([2]; 10 ppm)	reduced feeding (R) Southern Armyworm (Southern Armyworm; 100 ppm)	reduced feeding (R) Southern Armyworm (Southern Armyworm; 1000 ppm)
N=C(NN=Cc1ccc(Cl)cc1)NN=Cc1ccc(Cl)cc1 [Cl / Base]	0 (No effect)	0 (No effect)	9 (100%)	5 (56-65%)	0 (No effect)	–	–	–	–	–	–	–	–	–	–
CN(C)C(=O)N(N=Cc1ccc(Br)cc1)C(=N)NN=Cc1ccc(Br)cc1 [Br / Br / CH3 / CH3]	0 (No effect)	9 (100%)	9 (100%)	0 (No effect)	2 (26-35%)	0 (No effect)	–	–	–	–	–	–	–	–	–
CC(C)OC(=O)N(N=Cc1ccc(C(F)(F)F)cc1)C(=N)NN=Cc1ccc(C(F)(F)F)cc1 [CF3 / CF3 / -i-C3 H7]	9 (100%)	9 (100%)	9 (100%)	0 (No effect)	3 (36-45%)	0 (No effect)	R	R	–	–	–	–	–	–	–
CC(C)COC(=O)N(N=Cc1ccc(C(F)(F)F)cc1)C(=N)NN=Cc1ccc(C(F)(F)F)cc1 [CF3 / CF3 / -i-C4 H9]	–	0 (No effect)	9 (100%)	0 (No effect)	0 (No effect)	–	–	–	–	–	–	–	–	–	–
CCN(CC)C(=O)N(N=Cc1ccc(C(F)(F)F)cc1)C(=N)NN=Cc1ccc(C(F)(F)F)cc1 [CF3 / CF3 / C2 H5 / C2 H5]	7 (76-85%)	9 (100%)	9 (100%)	0 (No effect)	4 (46-55%)	–	–	–	8 µg/mL (≈ 16 µM)	12 ppm	–	–	–	–	–
N=C(NN=Cc1ccc(OC(F)F)cc1)NN=Cc1ccc(OC(F)F)cc1 [HCF2 O / B]	0 (No effect)	6 (66-75%)	9 (100%)	0 (No effect)	0 (No effect)	–	–	–	–	–	–	–	–	–	–
CNC(=O)N(N=Cc1ccc(C(F)(F)F)cc1)C(=N)NN=Cc1ccc(C(F)(F)F)cc1 [CF3 / CF3 / CH3 / H]	1 (11-25%)	9 (100%)	9 (100%)	8 (86-99%)	6 (66-75%)	–	–	–	5 µg/mL (≈ 10.9 µM)	–	0 (No effect)	–	–	–	–
N=C(NN=Cc1ccc(C(F)(F)F)cc1)N(N=Cc1ccc(C(F)(F)F)cc1)C(=O)OCc1ccccc1 [CF3 / CF3 / drawing 59]	–	0 (No effect)	9 (100%)	0 (No effect)	0 (No effect)	–	–	–	–	–	–	–	–	–	–
N=C(NN=Cc1ccc(Br)cc1)NN=Cc1ccc(Br)cc1 [Br / HNO3]	–	5 (56-65%)	9 (100%)	0 (No effect)	–	–	–	–	–	–	–	–	–	–	–
N=C(NN=Cc1ccc(OC(F)(F)C(F)F)cc1)N(N=Cc1ccc(OC(F)(F)C(F)F)cc1)C(=O)NCCCl [HCF2 CF2 O / HCF2 CF2 O / ClCH2 CH2 / H]	0 (No effect)	8 (86-99%)	9 (100%)	–	6 (66-75%)	0 (No effect)	–	–	–	–	–	21 µg/mL (≈ 34.8 µM)	0 (No effect)	–	–
N=C(NN=Cc1ccc(OC(F)(F)C(F)Cl)cc1)NN=Cc1ccc(OC(F)(F)C(F)Cl)cc1 (stereo not shown) [drawing 43 / B]	–	9 (100%)	9 (100%)	–	9 (100%)	0 (No effect)	–	–	–	–	–	–	0 (No effect)	–	–
N=C(NN=Cc1ccc(Cl)cc1)NN=Cc1ccc(Cl)cc1 [Cl / HCl]	0 (No effect)	0 (No effect)	–	–	0 (No effect)	–	–	–	–	–	–	–	–	R	R
N=C(NN=Cc1ccc(SC(F)F)cc1)NN=Cc1ccc(SC(F)F)cc1 [HCF2 S / B]	–	9 (100%)	8 (86-99%)	–	0 (No effect)	0 (No effect)	R	R	–	–	–	–	0 (No effect)	–	–
CC(C)(OC(=O)N(N=Cc1ccc(C(F)(F)F)cc1)C(=N)NN=Cc1ccc(C(F)(F)F)cc1)C(Cl)(Cl)Cl [CF3 / CF3 / Cl3 CC(CH3)2]	0 (No effect)	9 (100%)	9 (100%)	–	9 (100%)	0 (No effect)	R	–	–	–	–	–	0 (No effect)	–	–
CN(C)C(=O)N(N=Cc1ccc(SC(F)(F)C(F)F)cc1)C(=N)NN=Cc1ccc(SC(F)(F)C(F)F)cc1 [HCF2 CF2 S / HCF2 CF2 S / CH3 / CH3]	3 (36-45%)	9 (100%)	9 (100%)	–	6 (66-75%)	6 (66-75%)	–	–	–	–	–	–	0 (No effect)	–	–
N=C(NN=Cc1ccc(OC(F)(F)F)cc1)NN=Cc1ccc(OC(F)(F)F)cc1 [CF3 O / HCl]	0 (No effect)	9 (100%)	9 (100%)	9 (100%)	–	–	–	–	–	–	–	–	–	–	–
CCNC(=O)N(N=Cc1ccc(OC(F)(F)C(F)F)cc1)C(=N)NN=Cc1ccc(OC(F)(F)C(F)F)cc1 [HCF2 CF2 O / HCF2 CF2 O / C2 H5 / H]	0 (No effect)	9 (100%)	9 (100%)	–	4 (46-55%)	–	–	–	34 µg/mL (≈ 59.8 µM)	–	–	–	–	–	–
CN(C)C(=O)N(N=Cc1ccc(F)cc1)C(=N)NN=Cc1ccc(F)cc1 [F / F / CH3 / CH3]	–	0 (No effect)	8 (86-99%)	–	0 (No effect)	–	–	–	–	–	–	–	–	–	–
CCC(C)OC(=O)N(N=Cc1ccc(Cl)cc1)C(=N)NN=Cc1ccc(Cl)cc1 (stereo not shown) [Cl / Cl / drawing 56]	–	0 (No effect)	9 (100%)	–	0 (No effect)	0 (No effect)	–	R	–	–	–	–	–	–	–
